Source: patent US20240368668A1, “SUBSTRATES AND BIOMARKERS OF ADAMTS7” (The Broad Institute, Inc., priority 2021, published 2024)
Square brackets hold non-standard residues; d marks the D form. Ends that are not written are not given here. deamidated = deamidated asparagine; Met(O) = CS(=O)CC[C@H](N)C(=O)O

Legend:
[1] = system: mouse ADAMTS7; assay: TMT10 TAILS N-terminomics, SMC1 experiment (Ad-mADAMTS7 WT vs EQ vs Luc, technical replicates, trypsin digest); format: cell-based; details: for logFC.mWT.over.mEQ: TAILS neo-N-terminal peptide abundance, log fold change, Ad-mADAMTS7 WT over EQ; for SMC1 logFC.mWT.over.mEQ: TAILS HC Overlap, log fold change mouse ADAMTS7 WT over catalytically inactive EQ
In short: (§1)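 Full-length mouse ADAMTS7 (WT or E373Q mutant, C-terminal 3xFLAG) or luciferase was transduced via adenovirus, 50 MOI, into HCA-SMC (SMC1, SMC2) or HUVEC. SMC1: pooled media, technical triplicates 400 ug; SMC2: process triplicates 300 ug; HUVEC: process triplicates 200 ug, bFGF2 10 ng/ml.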

[2] = system: mouse ADAMTS7; assay: TMT10 TAILS N-terminomics, SMC2 experiment (process replicates, trypsin/AspN digest); format: cell-based
In short: as §1

[3] = SMC2_TAILS HC, log fold change, mWT over mEQ
[4] = SMC2_TAILS HC, log fold change of N-terminal peptide, Ad-mADAMTS7 WT over EQ
[5] = log fold change, ADAMTS7 WT over EQ

| Substance | logFC.mWT.over.mEQ [1] | logFC.mWT.over.mEQ [2, 4] | other results |
| --- | --- | --- | --- |
| CDC37_43 (FQKEKEELDR; listed as Homo sapiens) | 1.88 | – | – |
| CDH11_467 (HQEAKVPVAIR; listed as Homo sapiens) | 2.06 | – | – |
| CLEC11A_50 (HLQEALGLPAGR; listed as Homo sapiens) | 1.42 | – | – |
| COL1A2_80 (QYDGKGVGLGPGPMGLMGPR; listed as Homo sapiens) | 2.36 | – | logFC.mWT.over.mEQ [2, 3]: 1.15 |
| COL1A2_91 (GPMGLMGPR; listed as Homo sapiens) | 1.16 | – | – |
| COL1A2_113 (FQGPAGEPGEPGQTGPAGAR; listed as Homo sapiens) | 2.27 | – | – |
| COL1A2_270 (VGNAGPAGPAGPR; listed as Homo sapiens) | 2.82 | – | logFC.mWT.over.mEQ [2, 3]: 3.47 |
| COL1A2_305 (LTGAKGAAGLPGVAGAPGLPGPR; listed as Homo sapiens) | 1.63 | – | logFC.mWT.over.mEQ [2, 3]: 1.92 |
| COL1A2_389 (SAGPPGPPGLR; listed as Homo sapiens) | 0.72 | – | – |
| COL1A2_425 (ASGPAGVR; listed as Homo sapiens) | 1.34 | – | – |
| COL1A2_630 (VGTAGPSGPSGLPGER; listed as Homo sapiens) | 1.45 | – | logFC.mWT.over.mEQ [2, 3]: 2.33 |
| COL1A2_681 (VGAPGPAGATGDR; listed as Homo sapiens) | 1.60 | – | – |
| COL1A2_731 (AAGQPGAKGER; listed as Homo sapiens) | 1.03 | – | – |
| COL1A2_866 (LLGAPGILGLPGSR; listed as Homo sapiens) | 3.72 | – | logFC.mWT.over.mEQ [2, 3]: 3.22 |
| COL1A2_960 (AGAPGPHGPVGPAGKHGNR; listed as Homo sapiens) | 2.91 | – | logFC.mWT.over.mEQ [2, 3]: 2.87 |
| COL1A2_1028 (LQGLPGIAGHHGDQGAPGSVGPAGPR; listed as Homo sapiens) | 1.79 | – | logFC.mWT.over.mEQ [2, 3]: 1.98 |
| COL1A2_1037 (HHGDQGAPGSVGPAGPR; listed as Homo sapiens) | 3.09 | – | – |
| COL1A2_1127 (SLRPKDYEVDATLKSLNNQIETLLTPEGSR; listed as Homo sapiens) | 2.68 | – | – |
| COL4A2_71 (YNGPPGLQGFPGLQGR; listed as Homo sapiens) | 2.14 | – | logFC.mWT.over.mEQ [2, 3]: 1.70 |
| COL4A2_172 (YALPKEER; listed as Homo sapiens) | 5.21 | – | – |
| COL5A1_544 (SQAQAILQQAR; listed as Homo sapiens) | 1.08 | – | – |
| COL8A1_90 (MKEIQPAPR; listed as Homo sapiens) | 1.35 | – | – |
| COL18A1_1505 (LQPPVVQLHDSNPYPR; listed as Homo sapiens) | 1.42 | – | logFC.mWT.over.mEQ [2, 3]: 1.47 |
| ECM1_43 (YAAPPSPPLSR; listed as Homo sapiens) | 0.68 | – | – |
| LOXL1_218 (AVASAGVIYPYQPR; listed as Homo sapiens) | – | 1.83 | – |
| LOXL2_45 (HQPQAPANVAKIQLR; listed as Homo sapiens) | – | 2.51 | – |
| LTBP2_79 (VAGLQPVER; listed as Homo sapiens) | – | 1.62 | – |

| Substance | logFC.mWT.over.mEQ [1] | logFC.mWT.over.mEQ [2, 4] | other results |
| --- | --- | --- | --- |
| LTBP2_250 (SAAGEGTLAR; listed as Homo sapiens) | – | 2.70 | – |
| LTBP2_290 (QHVGLSR; listed as Homo sapiens) | – | 3.05 | – |
| LTBP2_502 (LVENSVETRPPPWLPASPGHSLW; listed as Homo sapiens) | – | 2.85 | – |
| LTBP2_1602 (EAGVHFR; listed as Homo sapiens) | 0.99 | – | – |
| LTBP3_103 (LTGSGFR; listed as Homo sapiens) | – | 5.72 | – |
| LTBP3_208 (FLVPLGPGQISA; listed as Homo sapiens) | – | 1.53 | – |
| MAN2A1_51 (LQEKIDHLER; listed as Homo sapiens) | 1.86 | – | – |
| MAP1B_1065 (LTTPTKQLGAQSPGR; listed as Homo sapiens) | 1.30 | – | – |
| MAP4_815 (AVASTGPSSR; listed as Homo sapiens) | 1.19 | 1.70 | – |
| MAP4_816 (VASTGPSSR; listed as Homo sapiens) | 1.62 | 2.51 | – |
| MGAT4B_28 (LSGQKGDVVDVYQR; listed as Homo sapiens) | 1.66 | – | – |
| MMP1_24 (LETQEQDVDLVQKYLEKYYNLKN(deamidated)DGR; listed as Homo sapiens) | 2.31 | – | – |
| MMP1_100 (FVLTEGNPR; listed as Homo sapiens) | – | 2.39 | – |
| MMP1_185 (FQPGPGIGG; listed as Homo sapiens) | – | 1.46 | – |
| NBEA_1892 (LEKVAPLLR; listed as Homo sapiens) | – | 2.12 | – |
| NID1_360 (FHQQHPQVI; listed as Homo sapiens) | – | 2.69 | – |
| NID2_291 (HSSVPLGR; listed as Homo sapiens) | 4.04 | 3.16 | – |
| NID2_374 (VGGPDLKGQVEPWDER; listed as Homo sapiens) | 4.94 | – | – |
| NID2_467 (LEDNIGSNTEVFTYNAANKETCEHNHR; listed as Homo sapiens) | 2.66 | – | – |
| NID2_951 (YAYPGAR; listed as Homo sapiens) | 3.92 | 2.80 | – |
| NUCB1_228 (LKEVWEELDGLDPNR; listed as Homo sapiens) | 1.63 | – | – |
| NUCB1_317 (FLASTQR; listed as Homo sapiens) | 4.87 | – | – |
| NUCB1_389 (LQQAVLHMEQR; listed as Homo sapiens) | 2.09 | – | – |
| OS9_54 ([code q]SQSSDVVIVSSKYKQR; also: modified N-terminal Gln; listed as Homo sapiens) | 2.81 | – | – |
| OS9_55 (SQSSDVVIVSSKYKQR; listed as Homo sapiens) | 2.29 | – | – |
| PAK4_141 (HSEAGGGSG; listed as Homo sapiens) | – | 1.78 | – |
| PAPPA_41 (AAGPATCATR; listed as Homo sapiens) | 3.48 | – | – |

| Substance | logFC.mWT.over.mEQ [1] | logFC.mWT.over.mEQ [2, 4] | other results |
| --- | --- | --- | --- |
| PDLIM4_104 (IDPEIQDGSPTTSR; listed as Homo sapiens) | 1.13 | – | – |
| PLIN3_75 (VSGAQPILSKL; listed as Homo sapiens) | – | 2.25 | – |
| POLR3G_88 (LFCSHWSHIPGFK; listed as Homo sapiens) | 1.51 | – | – |
| POSTN_413 (FSDDTLSMDQR; listed as Homo sapiens) | 2.31 | – | – |
| POSTN_727 (IITGPEIKYTR; listed as Homo sapiens) | – | 2.60 | – |
| POSTN_754 (IITGPEIKYTR; listed as Homo sapiens) | 1.68 | – | – |
| POSTN_790 (FIEGGDGHLFEDEEIKR; listed as Homo sapiens) | 1.18 | – | – |
| POSTN_807 (LLQGDTPVR; listed as Homo sapiens) | 1.17 | – | – |
| PPP1R18_295 (LSETLTR; listed as Homo sapiens) | 3.68 | 2.32 | – |
| PSAP_171 (F[Met(O)]ANIPLLLYPQDGPR; listed as Homo sapiens) | 1.03 | – | – |
| PTPRF_1859 (MRYEGVVDMFQTVKTLR; listed as Homo sapiens) | – | 2.59 | – |
| PXDN_1341 (SYQEDKPTKKTR; listed as Homo sapiens) | 5.26 | – | – |
| PXDN_1393 (QKTITDLR; listed as Homo sapiens) | 4.77 | – | – |
| QSOX1_210 (HKGVAVR; listed as Homo sapiens) | – | 1.69 | – |
| SERBP1_56 (QAAAQTNSNAAGKQLR; listed as Homo sapiens) | – | – | SMC1 logFC.mWT.over.mEQ [1]: 4.06; logFC.mWT.over.mEQ [2, 5]: 4.06 |
| SHC2_267 (VAKDPINQRACHIL; listed as Homo sapiens) | – | 1.85 | – |
| SPOCK1_27 (LAGGAGPNHGNFL; listed as Homo sapiens) | – | 2.69 | – |
| SRGN_59 (LLPGESNKIPR; listed as Homo sapiens) | – | 3.66 | SMC1 logFC.mWT.over.mEQ [1]: 4.33; logFC.mWT.over.mEQ [2, 5]: 4.33 |
| THBS2_290 (LSENLKR; listed as Homo sapiens) | – | – | SMC1 logFC.mWT.over.mEQ [1]: 4.05; logFC.mWT.over.mEQ [2, 5]: 4.05 |
| TNPO2_744 (VQ[Met(O)]VLNNLVEII[code n]RP[code n]TPKTLLE; listed as Homo sapiens) | – | 4.02 | – |
| TNS1_236 (QEGLAGYQR; listed as Homo sapiens) | – | 2.08 | – |
| TRGC2_86 (HRCIVRHENNK; listed as Homo sapiens) | – | 2.93 | – |
| TTN_5975 (VKEPPVEFTKPL; listed as Homo sapiens) | – | 3.34 | – |
| VAT1_42 (AASPPLLR; listed as Homo sapiens) | – | 2.95 | – |
| VIM_314 (QESTEYR; listed as Homo sapiens) | – | 3.28 | SMC1 logFC.mWT.over.mEQ [1]: 2.60; logFC.mWT.over.mEQ [2, 5]: 2.60 |
| VIM_333 (LKGTNESLER; listed as Homo sapiens) | – | 3.84 | SMC1 logFC.mWT.over.mEQ [1]: 4.39; logFC.mWT.over.mEQ [2, 5]: 4.39 |
